# In patent US20150087627A1, “COMBINATION OF KINASE INHIBITORS AND USES THEREOF” (Intellikine LLC, priority 2011, published 2015):
# Read-outs that look alike come from different tables or passages of the source.
# Columns and labels:
# Type in all cases: biochemical
# PI3K γ (p110γ) = target: T1, PI3K γ (p110γ) (Homo sapiens, UniProt P48736); test: PI 3-Kinase (human) HTRF assay, PI3K γ; details: read-out: PI3K γ IC50
# T1 construct: purchased Upstate / Millipore Corporation
# PI3K α (p110α/p85α) = target: T2, PI3K α (p110α/p85α) (Homo sapiens, UniProt P42336); test: PI 3-Kinase (human) HTRF assay, PI3K α; details: read-out: PI3K α IC50
# T2 construct: purchased Upstate / Millipore Corporation
# mTOR = target: T3, mTOR (Homo sapiens, UniProt P42345); test: mTOR kinase inhibition assay (radiometric or LanthaScreen TR-FRET); details: read-out: mTORC IC50
# T3 construct: purchased Invitrogen
# Procedure: The cross-activity or lack thereof of one or more compounds of the present invention against mTor can be measured according to any procedures known in the art or methods disclosed below.
# The compounds described herein can be tested against recombinant mTOR (Invitrogen) in an assay containing 50 mM HEPES, pH 7.5, 1 mM EGTA, 10 mM MgCl2, 2.5 mM, 0.01% Tween, 10 μM ATP (2.5 μCi of μ-32P-ATP), and 3 μg/mL BSA. Rat recombinant PHAS-1/4EBP1 (Calbiochem; 2 mg/mL) is used as a substrate. Reactions are terminated by spotting onto nitrocellulose, which is washed with 1M NaCl/1% phosphoric acid (approximately 6 times, 5-10 minutes each). Sheets are dried and the transferred radioactivity quantitated by phosphorimaging.
# For instance, one can use Invitrogen's LanthaScreen™ Kinase assay to test the inhibitors of mTOR disclosed herein. This assay is a time resolved FRET platform that measures the phosphorylation of GFP labeled 4EBP1 by mTOR kinase. The kinase reaction is performed in a white 384 well microtiter plate. The total reaction volume is 20 ul per well and the reaction buffer composition is 50 mM HEPES pH7.5, 0.01% Polysorbate 20, 1 mM EGTA, 10 mM MnCl2, and 2 mM DTT. In the first step, each well receives 2 ul of test compound in 20% dimethylsulphoxide resulting in a 2% DMSO final concentration. […] The plate is sealed and incubated for 1 hour at room temperature. […] The plate is sealed, incubated for 1 hour at room temperature, and then read on a plate reader set up for LanthaScreen™ TR-FRET. Data is analyzed and IC50s are generated using GraphPad Prism 5.
# PI3K β (p110β/p85α) = target: T4, PI3K β (p110β/p85α) (Homo sapiens, UniProt P42338); test: PI 3-Kinase (human) HTRF assay, PI3K β; details: read-out: PI3K β IC50
# T4 construct: purchased Upstate / Millipore Corporation
# PI3K δ = target: T5, PI3K δ (Homo sapiens, UniProt O00329); test: PI 3-Kinase (human) HTRF assay, PI3K δ; details: read-out: PI3K δ IC50
# T5 construct: purchased Upstate / Millipore Corporation
# T5 sequence (O00329 whole entry): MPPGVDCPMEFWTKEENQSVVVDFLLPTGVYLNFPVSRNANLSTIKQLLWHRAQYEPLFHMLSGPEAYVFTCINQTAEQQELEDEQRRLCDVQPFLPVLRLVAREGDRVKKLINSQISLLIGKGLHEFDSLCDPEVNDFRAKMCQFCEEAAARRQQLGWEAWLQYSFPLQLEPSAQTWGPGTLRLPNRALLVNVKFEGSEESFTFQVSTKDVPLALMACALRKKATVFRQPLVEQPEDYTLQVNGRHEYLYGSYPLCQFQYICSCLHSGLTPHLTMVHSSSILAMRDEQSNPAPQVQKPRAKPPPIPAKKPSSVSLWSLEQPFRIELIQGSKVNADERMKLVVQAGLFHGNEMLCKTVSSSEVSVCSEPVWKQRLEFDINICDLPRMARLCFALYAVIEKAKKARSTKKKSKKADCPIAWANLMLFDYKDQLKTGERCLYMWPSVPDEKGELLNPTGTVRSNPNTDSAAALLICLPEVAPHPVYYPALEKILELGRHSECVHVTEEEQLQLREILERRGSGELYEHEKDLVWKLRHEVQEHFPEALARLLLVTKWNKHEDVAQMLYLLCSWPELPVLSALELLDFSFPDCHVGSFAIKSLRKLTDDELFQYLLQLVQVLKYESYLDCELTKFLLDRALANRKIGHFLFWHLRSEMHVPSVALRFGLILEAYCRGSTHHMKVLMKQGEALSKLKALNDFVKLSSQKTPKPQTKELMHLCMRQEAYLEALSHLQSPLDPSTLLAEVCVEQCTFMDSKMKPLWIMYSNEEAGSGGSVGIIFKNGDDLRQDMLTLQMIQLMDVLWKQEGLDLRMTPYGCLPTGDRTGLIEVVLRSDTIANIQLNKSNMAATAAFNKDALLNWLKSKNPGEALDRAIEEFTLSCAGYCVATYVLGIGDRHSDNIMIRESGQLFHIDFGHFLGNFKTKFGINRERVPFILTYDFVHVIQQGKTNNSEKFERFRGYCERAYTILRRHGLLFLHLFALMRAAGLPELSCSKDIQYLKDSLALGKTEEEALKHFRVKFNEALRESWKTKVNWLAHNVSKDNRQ
# T5 sequence (P27986 whole entry partner): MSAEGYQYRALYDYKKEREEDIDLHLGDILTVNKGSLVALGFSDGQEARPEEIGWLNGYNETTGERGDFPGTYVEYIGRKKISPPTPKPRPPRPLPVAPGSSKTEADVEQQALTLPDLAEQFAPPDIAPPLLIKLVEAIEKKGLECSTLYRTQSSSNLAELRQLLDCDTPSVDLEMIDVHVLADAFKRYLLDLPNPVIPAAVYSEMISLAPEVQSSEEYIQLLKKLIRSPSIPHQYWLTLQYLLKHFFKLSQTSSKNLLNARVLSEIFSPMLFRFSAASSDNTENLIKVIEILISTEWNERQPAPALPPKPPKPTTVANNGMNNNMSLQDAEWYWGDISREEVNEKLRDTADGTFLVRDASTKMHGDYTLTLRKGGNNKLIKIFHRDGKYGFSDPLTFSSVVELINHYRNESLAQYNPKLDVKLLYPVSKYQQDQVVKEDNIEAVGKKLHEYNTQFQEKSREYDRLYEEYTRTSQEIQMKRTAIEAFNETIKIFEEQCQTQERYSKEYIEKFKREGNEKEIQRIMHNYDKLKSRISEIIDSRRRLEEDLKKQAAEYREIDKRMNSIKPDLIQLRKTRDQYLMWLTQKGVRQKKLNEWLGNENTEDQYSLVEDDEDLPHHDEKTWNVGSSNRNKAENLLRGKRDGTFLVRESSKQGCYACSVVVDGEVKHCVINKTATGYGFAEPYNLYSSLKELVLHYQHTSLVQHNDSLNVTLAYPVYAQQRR
# T4 sequence (P42338 whole entry): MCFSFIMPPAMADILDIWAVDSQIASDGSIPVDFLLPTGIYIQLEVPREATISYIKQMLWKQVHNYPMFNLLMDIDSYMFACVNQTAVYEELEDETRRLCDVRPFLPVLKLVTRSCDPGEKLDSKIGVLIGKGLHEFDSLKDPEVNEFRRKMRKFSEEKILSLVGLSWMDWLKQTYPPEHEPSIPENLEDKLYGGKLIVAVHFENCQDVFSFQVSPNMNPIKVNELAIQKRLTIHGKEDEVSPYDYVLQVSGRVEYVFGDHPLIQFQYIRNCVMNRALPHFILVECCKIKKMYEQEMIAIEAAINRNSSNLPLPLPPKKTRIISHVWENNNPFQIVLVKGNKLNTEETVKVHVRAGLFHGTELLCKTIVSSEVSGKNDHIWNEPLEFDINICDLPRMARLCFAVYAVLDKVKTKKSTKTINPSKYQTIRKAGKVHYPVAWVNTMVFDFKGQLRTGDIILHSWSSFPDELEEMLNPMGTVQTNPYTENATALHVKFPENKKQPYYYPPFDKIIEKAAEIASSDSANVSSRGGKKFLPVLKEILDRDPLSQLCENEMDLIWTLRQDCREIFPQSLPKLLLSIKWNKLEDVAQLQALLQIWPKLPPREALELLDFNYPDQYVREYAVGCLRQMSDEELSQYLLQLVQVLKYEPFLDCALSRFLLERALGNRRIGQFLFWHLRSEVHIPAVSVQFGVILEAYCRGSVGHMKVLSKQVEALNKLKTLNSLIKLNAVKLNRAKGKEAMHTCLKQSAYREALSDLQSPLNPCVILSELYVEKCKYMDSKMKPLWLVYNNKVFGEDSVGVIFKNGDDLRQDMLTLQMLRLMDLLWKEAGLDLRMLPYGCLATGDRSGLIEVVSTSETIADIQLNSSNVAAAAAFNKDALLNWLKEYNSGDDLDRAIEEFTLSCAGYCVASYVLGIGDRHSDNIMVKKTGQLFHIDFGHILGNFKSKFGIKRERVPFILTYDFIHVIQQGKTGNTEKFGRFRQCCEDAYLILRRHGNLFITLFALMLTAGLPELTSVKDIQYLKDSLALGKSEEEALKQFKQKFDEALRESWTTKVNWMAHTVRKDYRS
# T4 sequence (P27986 whole entry partner): as the sequence (P27986 whole entry partner) above
# T2 sequence (P42336 whole entry): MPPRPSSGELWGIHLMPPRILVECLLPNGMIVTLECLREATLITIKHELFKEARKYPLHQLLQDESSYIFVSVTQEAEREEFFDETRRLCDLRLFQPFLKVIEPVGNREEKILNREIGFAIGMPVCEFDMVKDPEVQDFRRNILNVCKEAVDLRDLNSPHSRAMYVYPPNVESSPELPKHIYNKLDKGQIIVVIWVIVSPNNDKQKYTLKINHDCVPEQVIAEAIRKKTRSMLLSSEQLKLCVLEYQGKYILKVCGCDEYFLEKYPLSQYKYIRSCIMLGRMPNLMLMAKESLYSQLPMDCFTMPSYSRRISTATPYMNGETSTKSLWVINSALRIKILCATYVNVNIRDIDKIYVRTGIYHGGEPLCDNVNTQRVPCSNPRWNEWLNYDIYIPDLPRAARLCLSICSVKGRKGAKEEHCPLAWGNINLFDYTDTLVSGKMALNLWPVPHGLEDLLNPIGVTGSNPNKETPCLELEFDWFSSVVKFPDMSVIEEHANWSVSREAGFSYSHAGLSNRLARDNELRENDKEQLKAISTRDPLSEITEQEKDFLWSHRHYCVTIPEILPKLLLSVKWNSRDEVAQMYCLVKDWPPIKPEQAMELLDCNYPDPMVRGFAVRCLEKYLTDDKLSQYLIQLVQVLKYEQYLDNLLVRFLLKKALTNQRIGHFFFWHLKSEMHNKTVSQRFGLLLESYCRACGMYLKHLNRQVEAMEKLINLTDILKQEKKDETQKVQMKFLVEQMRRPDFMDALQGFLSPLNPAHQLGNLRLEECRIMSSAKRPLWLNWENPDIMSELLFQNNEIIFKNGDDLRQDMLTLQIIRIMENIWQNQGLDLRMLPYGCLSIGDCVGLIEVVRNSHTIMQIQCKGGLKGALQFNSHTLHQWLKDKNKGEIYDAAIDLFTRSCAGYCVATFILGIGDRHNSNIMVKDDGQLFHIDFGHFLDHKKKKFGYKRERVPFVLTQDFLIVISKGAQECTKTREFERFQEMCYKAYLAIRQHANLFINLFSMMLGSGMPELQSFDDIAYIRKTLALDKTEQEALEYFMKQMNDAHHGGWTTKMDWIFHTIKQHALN
# T2 sequence (P27986 whole entry partner): as the sequence (P27986 whole entry partner) above
# T1 sequence (P48736 whole entry): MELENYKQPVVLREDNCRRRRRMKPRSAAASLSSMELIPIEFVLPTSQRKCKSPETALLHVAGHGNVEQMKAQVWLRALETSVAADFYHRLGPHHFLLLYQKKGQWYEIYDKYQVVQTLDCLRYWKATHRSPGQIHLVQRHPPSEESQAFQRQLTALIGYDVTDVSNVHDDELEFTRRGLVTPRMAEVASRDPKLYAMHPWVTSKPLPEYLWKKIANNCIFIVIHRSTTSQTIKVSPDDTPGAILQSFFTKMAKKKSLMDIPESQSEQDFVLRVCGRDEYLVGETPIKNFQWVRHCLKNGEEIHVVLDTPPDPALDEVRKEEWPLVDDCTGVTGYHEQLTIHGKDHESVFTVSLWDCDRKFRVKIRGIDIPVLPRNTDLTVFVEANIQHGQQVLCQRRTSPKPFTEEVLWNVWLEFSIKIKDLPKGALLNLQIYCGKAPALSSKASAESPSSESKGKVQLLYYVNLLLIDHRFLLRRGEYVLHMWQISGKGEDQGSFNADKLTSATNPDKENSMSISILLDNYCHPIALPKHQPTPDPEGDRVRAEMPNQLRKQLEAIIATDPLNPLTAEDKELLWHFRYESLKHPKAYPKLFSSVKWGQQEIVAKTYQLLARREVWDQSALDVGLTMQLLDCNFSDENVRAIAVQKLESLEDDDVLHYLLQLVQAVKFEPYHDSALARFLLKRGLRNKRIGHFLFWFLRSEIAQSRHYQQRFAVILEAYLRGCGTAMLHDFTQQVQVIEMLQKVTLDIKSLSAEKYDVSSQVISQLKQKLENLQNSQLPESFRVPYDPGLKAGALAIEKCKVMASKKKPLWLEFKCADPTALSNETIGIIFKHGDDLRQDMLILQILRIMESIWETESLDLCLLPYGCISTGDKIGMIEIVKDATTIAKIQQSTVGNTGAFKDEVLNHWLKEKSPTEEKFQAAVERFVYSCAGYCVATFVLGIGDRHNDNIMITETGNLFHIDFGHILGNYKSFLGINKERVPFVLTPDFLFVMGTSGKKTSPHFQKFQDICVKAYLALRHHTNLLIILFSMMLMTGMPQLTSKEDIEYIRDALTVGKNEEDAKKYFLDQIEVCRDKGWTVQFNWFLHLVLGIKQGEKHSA
Compound,IC50 (PI3K γ (p110γ)) [µM],IC50 (PI3K α (p110α/p85α)) [µM],IC50 (mTOR) [µM],IC50 (PI3K β (p110β/p85α)) [µM],IC50 (PI3K δ) [µM],IC50 (PI3K α (p110α/p85α); Table 4 (PI3K α inhibitors)) [µM],IC50 (mTOR; Table 4 (PI3K α inhibitors)) [µM],IC50 (PI3K β (p110β/p85α); Table 4 (PI3K α inhibitors)) [µM],IC50 (PI3K γ (p110γ); Table 4 (PI3K α inhibitors)) [µM],IC50 (PI3K δ; Table 4 (PI3K α inhibitors)) [µM]
Nc1nc2ccc(-c3ccc4nccc(-c5ccncc5)c4c3)cc2s1 [Compound 3],< 1,< 0.1,< 1,> 10,< 1,,,,,
Nc1ccc2cc(-c3ccc4nccc(-c5ccncc5)c4c3)ccc2n1 [Compound 5],< 1,< 1,< 1,> 10,< 10,,,,,
Nc1ncnc2ccc(-c3ccc4nccc(-c5ccncc5)c4c3)cc12 [Compound 8],< 1,< 10,> 10,> 10,,,,,,
Nc1ncc2cc(-c3ccc4nccc(-c5ccncc5)c4c3)ccc2n1 [Compound 9],< 1,< 1,> 10,< 10,,,,,,
Nc1nc2cccc(-c3ccc4nccc(-c5ccncc5)c4c3)c2o1 [Compound 15],,< 0.1,< 0.1,< 0.1,< 1,,,,,
Cn1cc(-c2ccnc3ccc(-c4ccc5oc(N)nc5c4)cc23)cn1 [Compound 26],< 0.1,< 0.1,< 1,,< 0.1,,,,,
Nc1nc2cc(-c3ccc4nccn4c3)ccc2o1 [Compound 40],< 10,< 10,< 10,,> 10,,,,,
CN1CCN(C(=O)c2cnc3ccc(-c4ccc5oc(N)nc5c4)cn23)CC1 [Compound 44],< 10,< 0.1,< 10,,< 10,,,,,
N#Cc1cnc2ccc(-c3ccc4oc(N)nc4c3)cc2c1-c1ccncc1 [Compound 46],< 0.1,< 0.1,< 0.1,,< 0.1,,,,,
Nc1nc2cc(-c3ccc4ncnc(OC5CCOCC5)c4c3)ccc2o1 [Compound 47],,< 0.1,< 0.1,< 1,< 1,,,,,
Nc1nc2cc(-c3ccc4ncn(C5CCOCC5)c(=O)c4c3)ccc2o1 [Compound 55],> 10,< 1,> 10,,> 10,,,,,
CC(=O)N1CCC(Nc2ncnc3ccc(-c4ccc5oc(N)nc5c4)cc23)CC1 [Compound 60],< 0.1,< 0.1,< 1,< 10,< 1,,,,,
Nc1nc2cc(-c3ccn4ncc(-c5ccncc5)c4n3)ccc2o1 [Compound 62],< 0.1,< 0.1,< 0.1,< 0.1,< 0.1,,,,,
Nc1nc2cc(-c3ccc4ncc(=O)[nH]c4c3)ccc2o1 [Compound 72],< 0.1,< 0.1,< 1,< 1,> 10,,,,,
CC(C)N1CCC(n2cnc3ccc(-c4ccc5oc(N)nc5c4)cc3c2=O)CC1 [Compound 74],< 10,< 0.1,< 10,< 10,> 10,,,,,
Nc1nc2cc(-c3ccc4ncc(-c5cccnc5)nc4c3)ccc2o1 [Compound 76],< 1,< 0.1,< 10,> 10,> 10,,,,,
N#Cc1cnc2ccc(-c3ccc4oc(N)nc4c3)cc2c1 [Compound 93],< 1,< 1,< 10,> 10,> 10,,,,,
CCOC(=O)N1CCN(c2cnc3ccc(-c4ccc5oc(N)nc5c4)cc3n2)CC1 [Compound 119],< 10,< 0.1,< 10,< 10,< 10,,,,,
Nc1nc2cc(-c3ccc4ncc(N5CCN(C(=O)[C@@H]6CCCN6)CC5)nc4c3)ccc2o1 [Compound 121],< 0.1,< 0.1,> 10,< 0.1,< 0.1,,,,,
CS(=O)(=O)N1CCN(Cc2cc3nc(-c4ccc5oc(N)nc5c4)nc(N4CCOCC4)c3s2)CC1 [Compound 129],< 0.1,< 0.1,< 1,< 1,< 1,,,,,
Nc1nc2cc(-c3ccc4ncc(NCCN5CCOCC5)nc4c3)ccc2o1 [Compound 133],< 1,< 0.1,> 10,< 1,< 1,,,,,
Nc1nc2cc(-c3ccc4ncc(N5CCNC(=O)C5)nc4c3)ccc2o1 [Compound 135],< 1,< 0.1,> 10,< 1,> 10,,,,,
CC(=O)N1CCC(N(C)c2ncnc3ccc(-c4ccc5oc(N)nc5c4)cc23)CC1 [Compound 137],,< 0.1,> 10,< 1,< 1,,,,,
CN(C)CC(=O)N1CCN(c2cnc3ccc(-c4ccc5oc(N)nc5c4)cc3n2)CC1 [Compound 139],< 1,< 0.1,> 10,< 1,< 1,,,,,

Compound,IC50 (PI3K γ (p110γ)) [µM],IC50 (PI3K α (p110α/p85α)) [µM],IC50 (mTOR) [µM],IC50 (PI3K β (p110β/p85α)) [µM],IC50 (PI3K δ) [µM],IC50 (PI3K α (p110α/p85α); Table 4 (PI3K α inhibitors)) [µM],IC50 (mTOR; Table 4 (PI3K α inhibitors)) [µM],IC50 (PI3K β (p110β/p85α); Table 4 (PI3K α inhibitors)) [µM],IC50 (PI3K γ (p110γ); Table 4 (PI3K α inhibitors)) [µM],IC50 (PI3K δ; Table 4 (PI3K α inhibitors)) [µM]
CN1CC(C(=O)N2CCN(c3cnc4ccc(-c5ccc6oc(N)nc6c5)cc4n3)CC2)C1 [Compound 156],< 1,< 0.1,> 10,< 1,< 1,,,,,
Nc1nc2cc(-c3ccc4ncc(N5CC(C(=O)N6CCOCC6)C5)nc4c3)ccc2o1 [Compound 169],< 1,< 0.1,< 10,< 1,< 1,,,,,
Nc1nc2cc(-c3ccc4nc(N)sc4c3)ccc2o1 [Compound 232],,< 1,< 10,< 1,< 10,,,,,
Nc1nc2cc(-c3cccc4[nH]nc(N)c34)ccc2o1 [Compound 236],> 10,> 10,> 10,> 10,,,,,,
CC(C)Oc1nc(-c2ccc3oc(N)nc3c2)cnc1N [Compound 237],< 10,< 10,< 1,< 10,,,,,,
Nc1nc2cc(-c3ccc4nc(N)oc4c3)ccc2o1 [Compound 241],< 0.1,< 1,< 10,,< 1,,,,,
Nc1nc2cc(-c3ccc4ncc(N5CC(N6CCOCC6)C5)nc4c3)ccc2o1 [Compound 273],,< 0.1,< 1,> 10,> 10,,,,,
CN1CCN(C2CN(c3cnc4ccc(-c5ccc6oc(N)nc6c5)cc4n3)C2)CC1 [Compound 274],,< 0.1,< 10,< 10,< 10,,,,,
Nc1nc2cc(-c3ccc4ncc(N5CC(N6CC[C@H](O)C6)C5)nc4c3)ccc2o1 [Compound 322],< 1,< 0.1,> 10,< 1,,,,,,
CN(C)[C@@H]1CCN(c2cnc3ccc(-c4ccc5oc(N)nc5c4)cc3n2)C1 [Compound 378],,< 0.1,< 1,< 0.1,< 10,,,,,
Nc1nc2cc(-c3ccc4ncc(N5CCNC(C(F)(F)F)C5)nc4c3)ccc2o1 (stereo not drawn) [Compound 384],,< 0.1,< 1,< 1,< 10,,,,,
CC1(C)CN(C2CN(c3cnc4ccc(-c5ccc6oc(N)nc6c5)cc4n3)C2)CCN1 [Compound 388],,< 0.1,< 0.1,< 1,< 1,,,,,
CS(=O)(=O)Nc1cc(-c2ccc3ncc(C(=O)N4CCOCC4)n3c2)cnc1Cl [Compound 418],,< 0.1,< 0.1,< 0.1,< 0.1,,,,,
C[C@H]1CN(C2CN(c3cnc4ccc(-c5ccc6oc(N)nc6c5)nc4n3)C2)CCN1 [Compound 561],,,,,,< 0.1,< 10,> 10,,
C[C@@H]1CN(C2CN(c3cnc4ccc(-c5ccc6oc(N)nc6c5)nc4n3)C2)CCN1 [Compound 563],,,,,,< 0.1,> 10,> 10,> 10,
C[C@H]1CN(c2cnc3ccc(-c4ccc5oc(N)nc5c4)nc3c2)CCN1 [Compound 598],,,,,,< 0.1,> 10,< 0.1,< 1,
Nc1nc2cc(-c3ccc4ncc(N5CC(N6CCOCC6)C5)cc4n3)ccc2o1 [Compound 604],,,,,,< 0.1,> 10,,< 1,
CC1(C)CN(C2CN(c3cnc4ccc(-c5ccc6oc(N)nc6c5)nc4c3)C2)CCN1 [Compound 609],,,,,,< 0.1,> 10,,< 1,< 1
C[C@H]1COCCN1C1CN(c2cnc3ccc(-c4ccc5oc(N)nc5c4)nc3n2)C1 [Compound 612],,,,,,< 0.1,> 10,> 10,,
Cc1nccn1C1CN(c2cnc3ccc(-c4ccc5oc(N)nc5c4)nc3c2)C1 [Compound 614],,,,,,< 0.1,> 10,,< 0.1,< 1
CN1CCN(C2CN(c3cnc4ccc(-c5ccc6oc(N)nc6c5)nc4c3)C2)CC1=O [Compound 615],,,,,,< 0.1,< 10,,< 0.1,< 1
Nc1nc2cc(-c3ccc4ncc(N5CC(N6CCN(CCO)CC6)C5)cc4n3)ccc2o1 [Compound 616],,,,,,< 0.1,> 10,,< 1,< 1
CCN1CCN(C2CN(c3cnc4ccc(-c5ccc6oc(N)nc6c5)nc4c3)C2)CC1 [Compound 626],,,,,,< 0.1,> 10,< 1,,< 1
